Assay results reported in patent US20070265231A1, “Hydrazide Compounds for Combating Animal Pests” (priority 2005, published 2007).

These compounds were tested on Orchid thrips (dichromothrips corbetti) (assay: Orchid thrips mortality test, floral-immersion technique). Conditions: 96 h, orchid petals dipped, adult thrips, after 4 days, read-out: mortality in comparison with untreated controls.
Format: in vivo
Method: I.3 Orchid thrips (dichromothrips corbetti)
Dichromothrips corbetti adults used for bioassay were obtained from a colony maintained continuously under laboratory conditions. For testing purposes, the test compound was diluted to a concentration of 500 ppm (wt compound: vol diluent) in a 1:1 mixture of acetone:water, plus 0.01% Kinetic® surfactant.
Thrips potency of each compound was evaluated by using a floral-immersion technique. Plastic petri dishes were used as test arenas. All petals of individual, intact orchid flowers were dipped into treatment solution for approximately 3 seconds and allowed to dry for 2 hours. Treated flowers were placed into individual petri dishes along with 10-15 adult thrips. The petri dishes were then covered with lids. All test arenas were held under continuous light and a temperature of about 28° C. for duration of the assay. After 4 days, the numbers of live thrips were counted on each flower, and along inner walls of each petri dish. The level of thrips mortality was extrapolated from pre-treatment thrips numbers.
Work on `CC(=Cc1cccc(F)c1)CNNC(=O)c1ccccc1F` [A1, 2-Fluorobenzoic acid N′-[3-(3-fluorophenyl)-2-methyl-allyl]hydrazide] yielded a mortality at 300 ppm greater than 75%.

What follows are compounds tested on Bean Aphid (Aphis fabae) (assay: Bean aphid mortality test, nasturtium plants dipped in test solution). Conditions: 300 ppm, after 3 days.
Format: in vivo
Description: I.4 Bean Aphid (Aphis fabae)
Nasturtium plants grown in Metro mix in the 1st leaf-pair stage (variety ‘Mixed Jewel’) were infested with approximately 2-30 laboratory-reared aphids by placing infested cut plants on top of the test plants. The cut plants were removed after 24 hr. Each plant was dipped into the test solution to provide complete coverage of the foliage, stem, protruding seed surface and surrounding cube surface and allowed to dry in the fume hood. The treated plants were kept at about 25° C. with continuous fluorescent light. Aphid mortality is determined after 3 days.
In the case of `CC(C)C(=Cc1ccco1)CNNC(=O)c1ccccn1` [E3], the “mortality in comparison with untreated controls” value (“mortality in comparison” below) is reported as 75%.
`CC(=Cc1ccccc1F)CNNC(=O)c1ccc(F)cc1F` [A305] was tested, and the “mortality in comparison” value was 75%.
`CC(=Cc1cccc(F)c1)CNN(C)C(=O)c1ccccc1` [A93] was tested, and the “mortality in comparison” value was 75%.
In the case of `CC(=Cc1ccccc1)CNNC(=O)c1ccc(F)cc1F` [A141], the “mortality in comparison” value is reported as 75%.
`O=C(NNCC=Cc1ccc(Cl)s1)c1ccccn1` [E1] was tested, and the “mortality in comparison” value was 75%.
